Laboratory results as given in article PMC10845205, “Discovery of novel antibacterial agent for the infected wound treatment: all-hydrocarbon stapling optimization of LL-37” (Theranostics, 2024).
In brackets after ≈: the same amount, converted by molar mass. Where two headings read alike, the source gives them in different places. Positions of bridges follow the written chain, without caps; N, C: chain ends. Non-standard residues stand in square brackets, D forms with d. Residues, ends and D or L forms follow the SMILES beside them. R8 = C=CCCCCCC[C@@](C)(N)C(=O)O; S5 = C=CCCC[C@](C)(N)C(=O)O

Tests used:
[1] = system: A. baumannii
Experimental: (§1) According to the protocol of Clinical & Laboratory Standards Institute, the minimum inhibitory concentration (MIC) of the linear and stapled peptides against a panel of gram-positive and gram-negative bacteria was determined by the broth microdilution method. […]
(§2) Bacterial strains and culture
(§3) Bacterial type stains ATCC 25923 S. aureus, ATCC 12228 S. epidermidis, ATCC […]
(§4) aeruginosa and ATCC 13883 K. pneumoniae were obtained from Shanghai Bioresource Collection Center. The bacterial culture medium was purchased from Oxoid and autoclaved according to the instructions from manufacturer. The isolated strains were cultured in Mueller Hinton II broth and continuously shaken at 140 rpm for 18 hours to the middle of the exponential growth phase at 37 °C with an OD value of 0.4-0.5.
(§5) Bacterial suspensions with an OD value of 0.1, approximately […], were then diluted for further assays.
(§6) The minimal inhibition concentration (MIC) of the linear and stapled peptides was determined using the microbroth dilution method from the Clinical and Laboratory Standards Institute (CLSI)[2, 3]. Bacterial suspensions of 10 6 CFU/mL were prepared in MH-II broth and peptide solutions at varying concentrations were prepared in phosphate buffer saline (PBS). Then 50 μL peptide solution and 50 μL bacterial suspension were mixed in a 96 -well plate. Plates were incubated for 24 hours at 37 °C.
(§7) 10 μL AlamarBlue cell viability reagent (ThermoFisher Scientific, UK) was added to each well, then the plate was re -incubated for a further 2 hours at 37 °C. The MIC was recorded as the minimum concentration of peptides required to completely in hibit bacteria growth. For serum stability assessment, the peptide solutions were pre - incubated with 50% human serum for 4 h before the MIC determination. Experiments were performed in 3 independent measurements. […]

[2] = system: S. epidermidis
Experimental: as §1, §2, §3, §4, §5, §6, §7

[3] = system: P. aeruginosa
Experimental: as §1, §2, §3, §4, §5, §6, §7

[4] = system: E. coli
Experimental: as §1, §2, §3, §4, §5, §6, §7

[5] = system: K. pneumoniae
Experimental: as §1, §2, §3, §4, §5, §6, §7

[6] = system: E. faecalis
Experimental: as §1, §2, §3, §4, §5, §6, §7

[7] = system: S. aureus
Experimental: as §1, §2, §3, §4, §5, §6, §7

[8] = Serum stability assay; type: in vitro ADME, human; conditions: for metabolised at 1 h, 0.4 mg/mL: human serum in pH 7.4 PBS, 37 °C, RP-HPLC, read-out: fraction hydrolyzed within 1 h; for TD50 (time at which 50% of the peptide is degraded in the presence of serum): human serum, 2 mg/mL peptide in pH 7.4 PBS mixed with serum 1:4, 37 °C, up to 48 h, RP-HPLC UV 220 nm, 3 independent measurements
Description: Maintaining high stability and presenting high compatibility in the complex physiological environment are important criterions for the clinical translation of AMPs. […] The derivatives were mixed with human serum in pH 7.4 PBS, simulating the degradation process of peptides by proteases in vivo. The percentages of intact derivatives were monitored and determined with time according to the PR-HPLC. […]
Serum stability of the linear and stapled peptides was examined by RP -HPLC as previously described. 2 mg/mL peptide solution was prepared in pH 7.4 PBS and incubated with human serum (Gemini, USA) to the final volume ratio of 1:4 at 37 °C.
At various time intervals, 50 μL mixture was added to 50 μL ethanol to terminate the enzymatic hydrolysis. After centrifugation at 10,000 rpm for 10 minutes under 4 °C, […]
the supernatant was collected and analyzed by RP-HPLC, with a UV detector monitored at 220 nm. Record the peak area of the intact peptide and calculate the percentage of remaining peptide based on the integrated area as, Peptide remaining (%) = peak area of remaining peptide/peak area of intact peptide×100%. […]

MIC A. baumannii ([1]; 24 h) | MIC S. epidermidis ([2]; 24 h) | MIC P. aeruginosa ([3]; 24 h) | MIC E. coli ([4]; 24 h) | MIC K. pneumoniae ([5]; 24 h) | MIC E. faecalis ([6]; 24 h) | MIC S. aureus ([7]; 24 h) | Compound | metabolised at 1 h, 0.4 mg/mL [8] | TD50 (time at which 50% of the peptide is degraded in the presence of serum) [8] | MIC A. baumannii ([1]; CLSI broth microdilution, MH-II broth, 24 h 37 °C, AlamarBlue, ATCC 19606, 3 independent measurements) | MIC S. epidermidis ([2]; CLSI broth microdilution, MH-II broth, 24 h 37 °C, AlamarBlue, ATCC 12228, 3 independent measurements) | MIC P. aeruginosa ([3]; CLSI broth microdilution, MH-II broth, 24 h 37 °C, AlamarBlue, ATCC 27853, 3 independent measurements) | MIC E. coli ([4]; CLSI broth microdilution, MH-II broth, 24 h 37 °C, AlamarBlue, ATCC 25922, 3 independent measurements) | MIC K. pneumoniae ([5]; CLSI broth microdilution, MH-II broth, 24 h 37 °C, AlamarBlue, ATCC 13883, 3 independent measurements) | MIC E. faecalis ([6]; CLSI broth microdilution, MH-II broth, 24 h 37 °C, AlamarBlue, ATCC 29212, 3 independent measurements) | MIC S. aureus ([7]; CLSI broth microdilution, MH-II broth, 10^6 CFU/mL, 24 h 37 °C, AlamarBlue, ATCC 25923, 3 independent measurements)
> 256 µg/mL | > 256 µg/mL | > 256 µg/mL | >256 µg/mL | > 256 µg/mL | > 256 µg/mL | > 256 µg/mL | CC[C@H](C)[C@@H]1NC(=O)[C@H](CCCNC(=N)N)NC(=O)[C@](C)(NC(C)=O)CCCCCCC=CCCC[C@@](C)(C(=O)N[C@@H](CC(=O)O)C(=O)N[C@@H](Cc2ccccc2)C(=O)N[C@@H](CC(C)C)C(=O)N[C@@H](CCCNC(=N)N)C(N)=O)NC(=O)[C@H]([C@@H](C)CC)NC(=O)[C@H](CCCNC(=N)N)NC(=O)[C@H](CCC(N)=O)NC(=O)[C@H](C(C)C)NC1=O [KR-12 (K1, K8)] (Ac-[R8]RIVQRI[S5]DFLR-NH2; staple 1-8) | – | – | – | – | – | – | – | – | –
128 µg/mL (≈ 75.6 µM) | 256 µg/mL (≈ 151 µM) | 128 µg/mL (≈ 75.6 µM) | 128 µg/mL (≈ 75.6 µM) | 128 µg/mL (≈ 75.6 µM) | > 256 µg/mL | 128 µg/mL (≈ 75.6 µM) | CC[C@H](C)[C@@H]1NC(=O)[C@H](CCCNC(=N)N)NC(=O)[C@H](CCC(N)=O)NC(=O)[C@](C)(NC(=O)[C@@H](NC(=O)[C@H](CCCNC(=N)N)NC(=O)[C@H](CCCCN)NC(C)=O)[C@@H](C)CC)CCCCCCC=CCCC[C@@](C)(C(=O)N[C@@H](CCCNC(=N)N)C(N)=O)NC(=O)[C@H](Cc2ccccc2)NC(=O)[C@H](CC(=O)O)NC(=O)[C@H](CCCCN)NC1=O [KR-12 (V4, L11)] (Ac-KRI[R8]QRIKDF[S5]R-NH2; staple 4-11) | – | – | – | – | – | – | – | – | –
– | – | – | – | – | – | – | CC[C@H](C)[C@H](NC(=O)[C@H](CCCCN)NC(=O)[C@H](CCC(=O)O)NC(=O)[C@H](CCCCN)NC(=O)[C@H](CO)NC(=O)[C@H](CCCCN)NC(=O)[C@H](CCCNC(=N)N)NC(=O)[C@H](Cc1ccccc1)NC(=O)[C@H](Cc1ccccc1)NC(=O)[C@H](CC(=O)O)NC(=O)CNC(=O)[C@H](CC(C)C)NC(=O)[C@@H](N)CC(C)C)C(=O)NCC(=O)N[C@@H](CCCCN)C(=O)N[C@@H](CCC(=O)O)C(=O)N[C@@H](Cc1ccccc1)C(=O)N[C@@H](CCCCN)C(=O)N[C@@H](CCCNC(=N)N)C(=O)N[C@H](C(=O)N[C@H](C(=O)N[C@@H](CCC(N)=O)C(=O)N[C@@H](CCCNC(=N)N)C(=O)N[C@H](C(=O)N[C@@H](CCCCN)C(=O)N[C@@H](CC(=O)O)C(=O)N[C@@H](Cc1ccccc1)C(=O)N[C@@H](CC(C)C)C(=O)N[C@@H](CCCNC(=N)N)C(=O)N[C@@H](CC(N)=O)C(=O)N[C@@H](CC(C)C)C(=O)N[C@H](C(=O)N1CCC[C@H]1C(=O)N[C@@H](CCCNC(=N)N)C(=O)N[C@H](C(=O)N[C@@H](CCC(=O)O)C(=O)N[C@@H](CO)C(=O)O)[C@@H](C)O)C(C)C)[C@@H](C)CC)C(C)C)[C@@H](C)CC [LL-37] | > 50% | 0.58 h | – | – | – | – | – | – | –
– | – | – | – | – | – | – | polymyxin b [PMB, reference compound] | – | – | 4 µg/mL | 128 µg/mL | 8 µg/mL | 4 µg/mL | 16 µg/mL | 256 µg/mL | 64 µg/mL
128 µg/mL (≈ 78.3 µM) | 64 µg/mL (≈ 39.2 µM) | 256 µg/mL (≈ 157 µM) | 128 µg/mL (≈ 78.3 µM) | 128 µg/mL (≈ 78.3 µM) | 256 µg/mL (≈ 157 µM) | 256 µg/mL (≈ 157 µM) | CC[C@H](C)[C@@H]1NC(=O)[C@H](CCCNC(=N)N)NC(=O)[C@H](CCC(N)=O)NC(=O)[C@H](C(C)C)NC(=O)[C@H]([C@@H](C)CC)NC(=O)[C@](C)(NC(=O)[C@H](CCCCN)NC(C)=O)CCCCCCC=CCCC[C@@](C)(C(=O)N[C@@H](Cc2ccccc2)C(=O)N[C@@H](CC(C)C)C(=O)N[C@@H](CCCNC(=N)N)C(N)=O)NC(=O)[C@H](CCCCN)NC1=O [KR-12 (R2, D9)] (Ac-K[R8]IVQRIK[S5]FLR-NH2; staple 2-9) | – | – | – | – | – | – | – | – | –
64 µg/mL (≈ 39.5 µM) | > 256 µg/mL | 64 µg/mL (≈ 39.5 µM) | 32 µg/mL (≈ 19.7 µM) | 64 µg/mL (≈ 39.5 µM) | 256 µg/mL (≈ 158 µM) | 64 µg/mL (≈ 39.5 µM) | CC[C@H](C)[C@@H]1NC(=O)[C@H](CCCNC(=N)N)NC(=O)[C@](C)(NC(=O)[C@@H](NC(=O)[C@@H](NC(=O)[C@H](CCCNC(=N)N)NC(=O)[C@H](CCCCN)NC(C)=O)[C@@H](C)CC)C(C)C)CCCCCCC=CCCC[C@@](C)(C(N)=O)NC(=O)[C@H](CC(C)C)NC(=O)[C@H](Cc2ccccc2)NC(=O)[C@H](CC(=O)O)NC(=O)[C@H](CCCCN)NC1=O [KR-12 (Q5, R12)] (Ac-KRIV[R8]RIKDFL[S5]-NH2; staple 5-12) | – | – | – | – | – | – | – | – | –
32 µg/mL (≈ 19.5 µM) | 256 µg/mL (≈ 156 µM) | 128 µg/mL (≈ 77.8 µM) | 64 µg/mL (≈ 38.9 µM) | 64 µg/mL (≈ 38.9 µM) | 256 µg/mL (≈ 156 µM) | 64 µg/mL (≈ 38.9 µM) | CC[C@H](C)[C@@H]1NC(=O)[C@H](CCCNC(=N)N)NC(=O)[C@H](CCC(N)=O)NC(=O)[C@H](C(C)C)NC(=O)[C@](C)(NC(=O)[C@H](CCCNC(=N)N)NC(=O)[C@H](CCCCN)NC(C)=O)CCCCCCC=CCCC[C@@](C)(C(=O)N[C@@H](CC(C)C)C(=O)N[C@@H](CCCNC(=N)N)C(N)=O)NC(=O)[C@H](CC(=O)O)NC(=O)[C@H](CCCCN)NC1=O [KR-12 (I3, F10)] (Ac-KR[R8]VQRIKD[S5]LR-NH2; staple 3-10) | – | – | – | – | – | – | – | – | –

Compound | MIC A. baumannii ([1]; 24 h) | MIC S. epidermidis ([2]; 24 h) | MIC P. aeruginosa ([3]; 24 h) | MIC E. coli ([4]; 24 h) | MIC K. pneumoniae ([5]; 24 h) | MIC E. faecalis ([6]; 24 h) | MIC S. aureus ([7]; 24 h) | metabolised at 1 h, 0.4 mg/mL [8] | TD50 (time at which 50% of the peptide is degraded in the presence of serum) [8] | MIC A. baumannii ([1]; CLSI broth microdilution, MH-II broth, 24 h 37 °C, AlamarBlue, ATCC 19606, 3 independent measurements) | MIC S. epidermidis ([2]; CLSI broth microdilution, MH-II broth, 24 h 37 °C, AlamarBlue, ATCC 12228, 3 independent measurements) | MIC P. aeruginosa ([3]; CLSI broth microdilution, MH-II broth, 24 h 37 °C, AlamarBlue, ATCC 27853, 3 independent measurements) | MIC E. coli ([4]; CLSI broth microdilution, MH-II broth, 24 h 37 °C, AlamarBlue, ATCC 25922, 3 independent measurements) | MIC K. pneumoniae ([5]; CLSI broth microdilution, MH-II broth, 24 h 37 °C, AlamarBlue, ATCC 13883, 3 independent measurements) | MIC E. faecalis ([6]; CLSI broth microdilution, MH-II broth, 24 h 37 °C, AlamarBlue, ATCC 29212, 3 independent measurements) | MIC S. aureus ([7]; CLSI broth microdilution, MH-II broth, 10^6 CFU/mL, 24 h 37 °C, AlamarBlue, ATCC 25923, 3 independent measurements)
Ac-KRIVQRIKDFLR-NH2 [KR-12, reference compound] | > 256 µg/mL | > 256 µg/mL | 256 µg/mL | 128 µg/mL | > 256 µg/mL | 128 µg/mL | 32 µg/mL | > 50% | 0.78 h | – | – | – | – | – | – | –
